Laboratory results taken from patent US4068074A, “Cephalosporin derivatives having at the 3-position of the cephem ring a heterocyclic thiomethyl group with a carboxy or sulfo group and at the 7-position of the cephem ring an α-heterocylic acylaminophenyl-acetamide group” (priority 1974, dated 1978).
Converted amounts (≈) assume the structure as drawn. Where two headings read alike, the source gives them in different places.

Columns and labels:
Format in all cases: cell-based
[1] = test system: Proteus mirabilis IXM OM-19; assay: MIC against bacteria (Table I), strain (3); details: IXMOM19
Excerpt: (§1) Now, for illustrating the excellent pharmacological effects of the compounds of this invention, the values of MIC (γ/ml.) of the compounds against various bacteria are shown in Table 1, in which the compounds of this invention used are shown by example numbers.
(3) Proteus mirabilis IXM OM-19

[2] = test system: Pseudomonas aeruginosa 99 (Gentamycin resistant); assay: MIC against bacteria (Table I), strain (5)
Excerpt: as §1
(5) Pseudomonas aeruginosa 99 (Gentamycin resistant)

Proteus vulgaris OXK US = assay: MIC against bacteria (Table I), strain (1); details: (1) Proteus vulgaris OXK US; read-out: MIC
Excerpt: as §1
(1) Proteus vulgaris OXK US

Salmonella typhi H901 W = assay: MIC against bacteria (Table I), strain (9); details: Salmonella enterica, TYPHI
Excerpt: as §1
(9) Salmonella typhi H901 W

[3] = test system: Bacillus megatherium 10778; assay: MIC against bacteria (Table I), strain (13)
Excerpt: as §1

[4] = test system: Staphylococcus aureus 209P; assay: MIC against bacteria (Table I), strain (16); details: Staphylococcus aureus, 209P
Excerpt: as §1
(16) Staphylococcus aureus 209P

Salmonella enteritidis = assay: MIC against bacteria (Table I), strain (10); details: Salmonella enterica
Excerpt: as §1
(10) Salmonella enteritidis

Staphylococcus Onuma = assay: MIC against bacteria (Table I), strain (18); details: (18) Staphylococcus Onuma; read-out: MIC
Excerpt: as §1
(18) Staphylococcus Onuma

[5] = test system: Psuedomonas ovalis IMA 1002; assay: MIC against bacteria (Table I), strain (6); details: (6) Psuedomonas ovalis IMA 1002; read-out: MIC
Excerpt: as §1
(6) Psuedomonas ovalis IMA 1002

[6] = test system: Shigella flexneri 2a 1675; assay: MIC against bacteria (Table I), strain (11); details: 2A1675
Excerpt: as §1

[7] = test system: Klebsiella pneumoniae ATCC 10031; assay: MIC against bacteria (Table I), strain (8); details: ATCC10031
Excerpt: as §1
(8) Klebsiella pneumoniae ATCC 10031

[8] = test system: Escherichia coli kauffmann 0-1; assay: MIC against bacteria (Table I), strain (7); details: Escherichia coli
Excerpt: as §1
(7) Escherichia coli kauffmann 0-1

[9] = test system: Micrococcus flavus ATCC 10240; assay: MIC against bacteria (Table I), strain (15); details: ATCC10240
Excerpt: as §1
(15) Micrococcus flavus ATCC 10240

Proteus vulgaris 0X 19US = assay: MIC against bacteria (Table I), strain (2); details: 0X19US
Excerpt: as §1
(2) Proteus vulgaris 0X 19US

[10] = test system: Staphylococcus Shimanishi; assay: MIC against bacteria (Table I), strain (17)
Excerpt: as §1
(17) Staphylococcus Shimanishi

[11] = test system: Pseudomonas aeruginosa ATCC 8689; assay: MIC against bacteria (Table I), strain (4); details: ATCC8689; (4) Pseudomonas aeruginosa ATCC 8689; read-out: MIC
Excerpt: as §1
(4) Pseudomonas aeruginosa ATCC 8689

[12] = test system: Bacillus subtilis ATCC 6633; assay: MIC against bacteria (Table I), strain (14); details: ATCC6633
Excerpt: as §1
(14) Bacillus subtilis ATCC 6633

Shigella sonnei II 37148 = assay: MIC against bacteria (Table I), strain (12); details: II37148
Excerpt: as §1

[13] = (3) Proteus mirabilis IXM OM-19, read-out: MIC
[14] = (5) Pseudomonas aeruginosa 99 (Gentamycin resistant), read-out: MIC
[15] = (13) Bacillus megatherium 10778, read-out: MIC
[16] = (11) Shigella flexneri 2a 1675, read-out: MIC
[17] = (8) Klebsiella pneumoniae ATCC 10031, read-out: MIC
[18] = (2) Proteus vulgaris 0X 19US, read-out: MIC
[19] = (17) Staphylococcus Shimanishi, read-out: MIC
[20] = (14) Bacillus subtilis ATCC 6633, read-out: MIC
[21] = (12) Shigella sonnei II 37148, read-out: MIC
[22] = (10) Salmonella enteritidis, read-out: MIC
[23] = (15) Micrococcus flavus ATCC 10240, read-out: MIC

Compound | MIC [1, 13] [µg/mL] | MIC [2, 14] [µg/mL] | MIC (Proteus vulgaris OXK US) [µg/mL] | MIC (Salmonella typhi H901 W) [µg/mL] | MIC [3, 15] [µg/mL] | MIC [4] [µg/mL] | MIC (Salmonella enteritidis; ENTERITIDIS) [µg/mL] | MIC (Staphylococcus Onuma) [µg/mL] | MIC [5] [µg/mL] | MIC [6, 16] [µg/mL] | MIC [7, 17] [µg/mL] | MIC [8] [µg/mL] | MIC ([9]; Micrococcus flavus) [µg/mL] | MIC (Proteus vulgaris 0X 19US; [18]) [µg/mL] | MIC [10, 19] [µg/mL] | MIC [11] [µg/mL] | MIC [12, 20] [µg/mL] | MIC (Shigella sonnei II 37148; [21]) [µg/mL] | MIC (Salmonella enteritidis; [22]) [µg/mL] | MIC (Proteus vulgaris 0X 19US; Proteus vulgaris) [µg/mL] | also measured
CC(Sc1nnc(SCC2=C(C(=O)O)N3C(=O)[C@@H](NC(=O)[C@H](NC(=O)c4cnccc4O)c4ccccc4)[C@H]3SC2)s1)C(=O)O (stereo partly drawn) [Example 21, 7-[D-α-(4-hydroxynicotinoylamido)-α-phenylacetamido]-3-[5-(1-carboxyethylthio)-1,3,4-thiadiazol-2-yl]thiomethyl-Δ^3-cephem-4-carboxylic acid] | 0.39 (≈ 0.566 µM) | 12.5 (≈ 18.1 µM) | < 0.09 | 1.56 (≈ 2.26 µM) | 0.39 (≈ 0.566 µM) | 1.56 (≈ 2.26 µM) | 0.39 (≈ 0.566 µM) | 6.25 (≈ 9.07 µM) | 12.5 (≈ 18.1 µM) | 1.56 (≈ 2.26 µM) | 6.25 (≈ 9.07 µM) | 3.13 (≈ 4.54 µM) | 3.13 (≈ 4.54 µM) | 0.19 (≈ 0.276 µM) | 6.25 (≈ 9.07 µM) | 12.5 (≈ 18.1 µM) | 0.39 (≈ 0.566 µM) | 3.13 (≈ 4.54 µM) | – | – | –
CC(C)(Sc1nnc(SCC2=C(C(=O)O)N3C(=O)[C@@H](NC(=O)[C@H](NC(=O)c4cnccc4O)c4ccccc4)[C@H]3SC2)s1)C(=O)O [Example 22, 7-[D-α-(4-hydroxynicotinoylamido)-α-phenylacetamido]-3-[5-(1-carboxy-1-methylethylthio)-1,3,4-thiadiazol-2-yl]thiomethyl-Δ^3-cephem-4-carboxylic acid] | 0.39 (≈ 0.555 µM) | 6.25 (≈ 8.89 µM) | 0.19 (≈ 0.27 µM) | 3.13 (≈ 4.45 µM) | 0.39 (≈ 0.555 µM) | 1.56 (≈ 2.22 µM) | – | 12.5 (≈ 17.8 µM) | 12.5 (≈ 17.8 µM) | 1.56 (≈ 2.22 µM) | 6.25 (≈ 8.89 µM) | 3.13 (≈ 4.45 µM) | – | – | 12.5 (≈ 17.8 µM) | 12.5 (≈ 17.8 µM) | 0.78 (≈ 1.11 µM) | 3.13 (≈ 4.45 µM) | 0.78 (≈ 1.11 µM) | 1.56 (≈ 2.22 µM) | MIC [9, 23]: 6.25 µg/mL (≈ 8.89 µM)
Cc1cc(O)c(C(=O)N[C@@H](C(=O)N[C@@H]2C(=O)N3C(C(=O)O)=C(CSc4nnc(SCC(=O)O)s4)CS[C@H]23)c2ccccc2)cn1 [Example 29, 7-[D-α-(4-hydroxy-6-methylnicotinoylamido)-α-phenylacetamido]-3-(5-carboxymethylthio-1,3,4,-thiadiazol-2-yl)thiomethyl-Δ^3-cephem-4-carboxylic acid] | 0.78 (≈ 1.13 µM) | 6.25 (≈ 9.07 µM) | < 0.09 | 1.56 (≈ 2.26 µM) | 0.78 (≈ 1.13 µM) | 1.56 (≈ 2.26 µM) | – | 12.5 (≈ 18.1 µM) | 12.5 (≈ 18.1 µM) | 0.78 (≈ 1.13 µM) | 6.25 (≈ 9.07 µM) | 3.13 (≈ 4.54 µM) | – | 12.5 (≈ 18.1 µM) | 6.25 (≈ 9.07 µM) | 12.5 (≈ 18.1 µM) | 0.78 (≈ 1.13 µM) | 3.13 (≈ 4.54 µM) | 0.78 (≈ 1.13 µM) | – | MIC [9, 23]: 6.25 µg/mL (≈ 9.07 µM)
Nn1c(SCC(=O)O)nnc1SCC1=C(C(=O)O)N2C(=O)[C@@H](NC(=O)[C@H](NC(=O)c3cnccc3O)c3ccccc3)[C@H]2SC1 [Example 30, 7-[D-α-(4-hydroxynicotinoylamido)-α-phenylacetamido]-3-(1-amino-5-carboxymethylthio-1,3,4-triazol-2-yl)thiomethyl-Δ^3-cephem-4-carboxylic acid] | 0.78 (≈ 1.16 µM) | – | < 0.09 | 6.25 (≈ 9.29 µM) | 0.78 (≈ 1.16 µM) | 1.56 (≈ 2.32 µM) | – | 25 (≈ 37.2 µM) | 25 (≈ 37.2 µM) | 6.25 (≈ 9.29 µM) | – | 6.25 (≈ 9.29 µM) | 12.5 (≈ 18.6 µM) | 0.78 (≈ 1.16 µM) | – | 25 (≈ 37.2 µM) | 0.78 (≈ 1.16 µM) | 12.5 (≈ 18.6 µM) | 1.56 (≈ 2.32 µM) | – | MIC ([2]; Pseudomonas aeruginosa): 12.5 µg/mL (≈ 18.6 µM); MIC ([7]; Klebsiella pneumoniae): 12.5 µg/mL (≈ 18.6 µM); MIC ([10]; Staphylococcus): 12.5 µg/mL (≈ 18.6 µM)
O=C(O)Cc1nnc(SCC2=C(C(=O)O)N3C(=O)[C@@H](NC(=O)[C@H](NC(=O)c4csccc4=O)c4ccc(O)cc4)[C@H]3SC2)s1 [Example 32, 7-[D-α-(4-thiopyrone-3-carboxamido)-α-p-hydroxyphenylacetamido]-3-[5-carboxymethyl-1,3,4-thiadiazol-2-yl]thiomethyl-Δ^3-cephem-4-carboxylic acid] | – | 25 (≈ 37 µM) | < 0.09 | 1.56 (≈ 2.31 µM) | – | 1.56 (≈ 2.31 µM) | 1.56 (≈ 2.31 µM) | 6.25 (≈ 9.25 µM) | 50 (≈ 74 µM) | 0.78 (≈ 1.15 µM) | 6.25 (≈ 9.25 µM) | 3.13 (≈ 4.63 µM) | 3.13 (≈ 4.63 µM) | – | – | 50 (≈ 74 µM) | – | 3.13 (≈ 4.63 µM) | – | 3.13 (≈ 4.63 µM) | MIC ([1]; Proteus mirabilis): 0.78 µg/mL (≈ 1.15 µM); MIC ([3]; Bacillus, 10778): 0.78 µg/mL (≈ 1.15 µM); MIC ([10]; Staphylococcus): 3.13 µg/mL (≈ 4.63 µM); MIC ([12]; Bacillus subtilis): 0.78 µg/mL (≈ 1.15 µM)
O=C(O)CSc1nnc(SCC2=C(C(=O)O)N3C(=O)[C@@H](NC(=O)[C@H](NC(=O)c4cnccc4O)c4ccc(O)cc4)[C@H]3SC2)s1 [Example 33, 7-[D-α-(4-hydroxynicotinoylamido)-α-p-hydroxyphenylacetamido]-3-[5-carboxymethylthio-1,3,4-Δ^3-thiadiazol-2-yl]thiomethyl-cephem-4-carboxylic acid] | 0.39 (≈ 0.565 µM) | 25 (≈ 36.2 µM) | < 0.09 | 3.13 (≈ 4.53 µM) | 0.78 (≈ 1.13 µM) | 3.13 (≈ 4.53 µM) | – | 25 (≈ 36.2 µM) | 12.5 (≈ 18.1 µM) | – | 25 (≈ 36.2 µM) | 3.13 (≈ 4.53 µM) | 3.13 (≈ 4.53 µM) | – | 12.5 (≈ 18.1 µM) | 25 (≈ 36.2 µM) | 0.78 (≈ 1.13 µM) | – | 1.56 (≈ 2.26 µM) | 12.5 (≈ 18.1 µM) | MIC ([6]; Shigella flexneri): 3.13 µg/mL (≈ 4.53 µM); MIC (Shigella sonnei II 37148; Shigella sonnei): 3.13 µg/mL (≈ 4.53 µM)
